In patent publication EP4678638A1, “NEW E3 UBIQUITIN LIGASE LIGAND, PROTEIN DEGRADATION AGENT AND USE THEREOF” (priority 2023, dated 2024):

What was measured:
Assay type in all cases: cell-based
Settings in all cases: Table D16
IKZF2 = biological target: T1, IKZF2 (Homo sapiens, UniProt Q96SW2+Q9UKS7); assay: Western blot degradation of IKZF2 (hPBMC)
T1 construct: evaluate the effects of the compounds of the present disclosure on the expression of target proteins in cells; endogenous in cells; host or cells: hPBMC
Method: (§1) Conventional Western blot assay was performed to evaluate the effects of the compounds of the present disclosure on the expression of target proteins in cells.
(§2) (1) Cell Seeding and Protein Harvesting: The selected cells were processed according to the cell seeding procedure and protein harvesting procedure in Table III-2. Table III-2 Cell Seeding and Protein Harvesting Procedures
(§3) (2) To the collected supernatant, 5X SDS sample loading buffer was added, followed by denaturation at 95°C for 5 minutes. The denatured samples were then separated by SDS-PAGE electrophoresis on a polyacrylamide gel. Proteins were transferred to a nitrocellulose membrane (0.45 µm NC membrane), blocked with blocking buffer at room temperature for 1 hour, and subjected to antibody incubation and development procedures according to the antibody manufacturer's instructions (Cell Signaling Technology).
(§4) Half-Maximal Degradation Concentration value (the drug concentration required for degrading proteins by 50%, abbreviated as DC50) reads method: comparing the grayscale values of Western blot bands from drug-treated samples with those from blank DMSO-treated controls, and identifying the drug concentration range at which the grayscale value is half that of the DMSO-treated control bands.
(§5) DC50 values can be calculated using ImageJ software to measure grayscale values of Western blot bands from drug-treated samples. The concentration-response curve is fitted to estimate the drug concentration corresponding to half the grayscale value.
(§6) Target protein remaining (%) refers to the percentage of target protein remaining in hPBMC cells after treatment with protein degrader compounds.
(§7) Calculation method for target protein remaining (%): Use ImageJ software to measure grayscale values of Western blot bands from drug (protein degrader)-treated samples. The grayscale value of drug-treated bands is divided by that of internal control protein bands, and the resulting quotient is normalized to obtain the relative percentage of remaining target protein after protein degrader treatment.
(§8) Target protein degradation rate (%) = 100% - target protein remaining (%).

CK1a = biological target: T2, CK1a (Homo sapiens, UniProt P48729+Q96SW2); assay: Western blot degradation of CK1a (hPBMC)
T2 construct: evaluate the effects of the compounds of the present disclosure on the expression of target proteins in cells; endogenous in cells; host or cells: hPBMC
Method: as §1, §2, §3, §4, §5, §6, §7, §8

WEE1 = biological target: T3, WEE1 (Homo sapiens, UniProt P30291+Q96SW2); assay: Western blot degradation of WEE1 (hPBMC)
T3 construct: evaluate the effects of the compounds of the present disclosure on the expression of target proteins in cells; endogenous in cells; host or cells: hPBMC
Method: as §1, §2, §3, §4, §5, §6, §7, §8

IKZF1 = biological target: T4, IKZF1 (Homo sapiens, UniProt Q13422+Q96SW2); assay: Western blot degradation of IKZF1 (hPBMC)
T4 construct: evaluate the effects of the compounds of the present disclosure on the expression of target proteins in cells; endogenous in cells; host or cells: hPBMC
Method: as §1, §2, §3, §4, §5, §6, §7, §8

GSPT1 = biological target: T5, GSPT1 (Homo sapiens, UniProt P15170+Q96SW2); assay: Western blot degradation of GSPT1 (hPBMC)
T5 construct: evaluate the effects of the compounds of the present disclosure on the expression of target proteins in cells; endogenous in cells; host or cells: hPBMC
Method: as §1, §2, §3, §4, §5, §6, §7, §8

IKZF3 = biological target: T6, IKZF3 (Homo sapiens, UniProt Q96SW2+Q9UKT9); assay: Western blot degradation of IKZF3 (hPBMC)
T6 construct: evaluate the effects of the compounds of the present disclosure on the expression of target proteins in cells; endogenous in cells; host or cells: hPBMC
Method: as §1, §2, §3, §4, §5, §6, §7, §8

T6 sequence (Q9UKT9 whole entry): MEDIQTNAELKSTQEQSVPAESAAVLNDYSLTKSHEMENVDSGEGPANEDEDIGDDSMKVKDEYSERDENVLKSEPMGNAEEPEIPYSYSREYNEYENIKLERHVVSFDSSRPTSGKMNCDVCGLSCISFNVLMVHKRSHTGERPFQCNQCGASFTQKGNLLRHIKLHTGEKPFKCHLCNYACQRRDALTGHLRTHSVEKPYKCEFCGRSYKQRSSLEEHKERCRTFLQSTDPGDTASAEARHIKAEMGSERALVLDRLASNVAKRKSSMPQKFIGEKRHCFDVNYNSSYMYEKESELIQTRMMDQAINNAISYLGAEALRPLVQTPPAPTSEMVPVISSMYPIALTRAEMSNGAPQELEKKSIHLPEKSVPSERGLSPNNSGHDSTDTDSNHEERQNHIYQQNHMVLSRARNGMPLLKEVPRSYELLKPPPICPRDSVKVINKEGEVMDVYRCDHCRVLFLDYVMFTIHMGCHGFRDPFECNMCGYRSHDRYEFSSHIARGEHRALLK
T6 sequence (Q96SW2 whole entry): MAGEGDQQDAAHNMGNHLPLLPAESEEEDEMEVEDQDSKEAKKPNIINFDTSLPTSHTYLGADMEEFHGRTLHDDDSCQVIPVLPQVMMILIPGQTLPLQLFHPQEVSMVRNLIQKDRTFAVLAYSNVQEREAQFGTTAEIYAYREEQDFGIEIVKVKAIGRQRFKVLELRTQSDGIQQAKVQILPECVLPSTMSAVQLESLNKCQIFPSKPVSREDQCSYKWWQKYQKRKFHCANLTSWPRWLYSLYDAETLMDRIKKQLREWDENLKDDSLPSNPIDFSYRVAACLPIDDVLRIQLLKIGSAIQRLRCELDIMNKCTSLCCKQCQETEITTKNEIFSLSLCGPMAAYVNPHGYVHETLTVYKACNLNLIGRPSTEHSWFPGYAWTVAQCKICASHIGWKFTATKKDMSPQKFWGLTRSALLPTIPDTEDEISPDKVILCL
T6 sequence (Q16531 whole entry partner): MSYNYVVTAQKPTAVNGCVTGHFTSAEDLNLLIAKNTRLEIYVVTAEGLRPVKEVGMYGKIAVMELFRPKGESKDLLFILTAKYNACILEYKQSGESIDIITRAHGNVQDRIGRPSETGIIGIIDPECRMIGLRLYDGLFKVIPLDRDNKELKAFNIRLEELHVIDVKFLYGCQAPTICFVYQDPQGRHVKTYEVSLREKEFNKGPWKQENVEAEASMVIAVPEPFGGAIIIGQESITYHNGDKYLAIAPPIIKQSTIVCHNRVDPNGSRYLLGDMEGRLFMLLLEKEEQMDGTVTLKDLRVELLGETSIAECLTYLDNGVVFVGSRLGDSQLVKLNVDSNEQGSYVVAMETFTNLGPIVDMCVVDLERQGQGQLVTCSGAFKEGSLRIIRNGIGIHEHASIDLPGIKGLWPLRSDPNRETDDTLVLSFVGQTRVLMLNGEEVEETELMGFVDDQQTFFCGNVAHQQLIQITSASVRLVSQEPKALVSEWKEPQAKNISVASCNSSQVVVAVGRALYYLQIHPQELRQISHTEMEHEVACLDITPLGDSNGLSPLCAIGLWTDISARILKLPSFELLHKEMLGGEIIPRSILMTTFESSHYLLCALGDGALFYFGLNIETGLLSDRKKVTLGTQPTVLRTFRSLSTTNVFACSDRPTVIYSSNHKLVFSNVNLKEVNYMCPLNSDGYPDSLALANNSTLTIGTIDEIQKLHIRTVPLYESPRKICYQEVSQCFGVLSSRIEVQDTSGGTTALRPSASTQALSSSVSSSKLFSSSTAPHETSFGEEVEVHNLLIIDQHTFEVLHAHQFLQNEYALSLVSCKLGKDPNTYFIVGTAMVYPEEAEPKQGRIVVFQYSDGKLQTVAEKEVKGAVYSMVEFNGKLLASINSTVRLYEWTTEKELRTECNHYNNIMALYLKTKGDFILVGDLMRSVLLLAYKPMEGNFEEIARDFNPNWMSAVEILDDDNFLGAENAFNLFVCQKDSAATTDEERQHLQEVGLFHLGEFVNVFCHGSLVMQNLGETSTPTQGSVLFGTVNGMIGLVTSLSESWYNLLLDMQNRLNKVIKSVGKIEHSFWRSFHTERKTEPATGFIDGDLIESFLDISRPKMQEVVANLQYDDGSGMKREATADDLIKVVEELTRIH
T4 sequence (Q13422 whole entry): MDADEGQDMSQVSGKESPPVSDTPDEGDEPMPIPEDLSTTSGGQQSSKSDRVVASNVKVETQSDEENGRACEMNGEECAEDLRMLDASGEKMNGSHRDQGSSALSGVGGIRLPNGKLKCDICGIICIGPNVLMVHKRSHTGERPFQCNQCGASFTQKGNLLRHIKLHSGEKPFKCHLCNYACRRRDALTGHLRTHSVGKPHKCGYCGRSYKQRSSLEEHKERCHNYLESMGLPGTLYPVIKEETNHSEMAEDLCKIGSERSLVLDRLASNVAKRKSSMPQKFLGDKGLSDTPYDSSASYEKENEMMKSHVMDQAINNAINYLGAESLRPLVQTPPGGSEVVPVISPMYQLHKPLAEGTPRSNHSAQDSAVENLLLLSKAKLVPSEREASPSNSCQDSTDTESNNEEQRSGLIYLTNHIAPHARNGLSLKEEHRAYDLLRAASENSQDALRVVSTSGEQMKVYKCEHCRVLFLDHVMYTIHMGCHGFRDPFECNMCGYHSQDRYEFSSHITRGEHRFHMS
T4 sequence (Q96SW2 whole entry): as the sequence (Q96SW2 whole entry) above
T4 sequence (Q16531 whole entry partner): as the sequence (Q16531 whole entry partner) above
T5 sequence (P15170 whole entry): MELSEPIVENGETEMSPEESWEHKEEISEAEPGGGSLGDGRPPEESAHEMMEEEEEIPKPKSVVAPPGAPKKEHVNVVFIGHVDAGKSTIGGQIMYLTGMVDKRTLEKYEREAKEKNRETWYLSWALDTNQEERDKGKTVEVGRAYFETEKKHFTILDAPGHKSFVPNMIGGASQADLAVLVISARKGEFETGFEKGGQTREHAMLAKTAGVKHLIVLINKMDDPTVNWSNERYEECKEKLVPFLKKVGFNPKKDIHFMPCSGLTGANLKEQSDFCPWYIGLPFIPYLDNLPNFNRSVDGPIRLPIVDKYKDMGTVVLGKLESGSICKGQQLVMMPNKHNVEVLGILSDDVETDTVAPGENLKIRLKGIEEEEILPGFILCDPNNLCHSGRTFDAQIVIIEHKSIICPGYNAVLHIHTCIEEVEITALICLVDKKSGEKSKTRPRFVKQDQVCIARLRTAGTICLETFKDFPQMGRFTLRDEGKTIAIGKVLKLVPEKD
T5 sequence (Q96SW2 whole entry): as the sequence (Q96SW2 whole entry) above
T5 sequence (Q16531 whole entry partner): as the sequence (Q16531 whole entry partner) above
T1 sequence (Q9UKS7 whole entry): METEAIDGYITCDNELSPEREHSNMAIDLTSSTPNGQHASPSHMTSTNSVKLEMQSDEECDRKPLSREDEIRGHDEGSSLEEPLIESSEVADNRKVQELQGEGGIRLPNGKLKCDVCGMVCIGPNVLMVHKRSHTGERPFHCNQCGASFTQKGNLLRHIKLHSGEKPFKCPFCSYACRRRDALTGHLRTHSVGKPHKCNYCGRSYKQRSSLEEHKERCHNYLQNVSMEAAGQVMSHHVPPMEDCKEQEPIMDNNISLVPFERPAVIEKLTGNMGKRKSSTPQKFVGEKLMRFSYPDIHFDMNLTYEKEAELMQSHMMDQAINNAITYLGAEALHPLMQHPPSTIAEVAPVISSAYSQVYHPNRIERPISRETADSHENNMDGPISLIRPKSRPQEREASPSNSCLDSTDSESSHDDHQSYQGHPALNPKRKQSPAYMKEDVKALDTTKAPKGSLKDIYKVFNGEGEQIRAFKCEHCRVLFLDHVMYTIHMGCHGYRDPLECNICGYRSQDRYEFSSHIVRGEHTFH
T1 sequence (Q96SW2 whole entry): as the sequence (Q96SW2 whole entry) above
T1 sequence (Q16531 whole entry partner): as the sequence (Q16531 whole entry partner) above
T3 sequence (P30291 whole entry): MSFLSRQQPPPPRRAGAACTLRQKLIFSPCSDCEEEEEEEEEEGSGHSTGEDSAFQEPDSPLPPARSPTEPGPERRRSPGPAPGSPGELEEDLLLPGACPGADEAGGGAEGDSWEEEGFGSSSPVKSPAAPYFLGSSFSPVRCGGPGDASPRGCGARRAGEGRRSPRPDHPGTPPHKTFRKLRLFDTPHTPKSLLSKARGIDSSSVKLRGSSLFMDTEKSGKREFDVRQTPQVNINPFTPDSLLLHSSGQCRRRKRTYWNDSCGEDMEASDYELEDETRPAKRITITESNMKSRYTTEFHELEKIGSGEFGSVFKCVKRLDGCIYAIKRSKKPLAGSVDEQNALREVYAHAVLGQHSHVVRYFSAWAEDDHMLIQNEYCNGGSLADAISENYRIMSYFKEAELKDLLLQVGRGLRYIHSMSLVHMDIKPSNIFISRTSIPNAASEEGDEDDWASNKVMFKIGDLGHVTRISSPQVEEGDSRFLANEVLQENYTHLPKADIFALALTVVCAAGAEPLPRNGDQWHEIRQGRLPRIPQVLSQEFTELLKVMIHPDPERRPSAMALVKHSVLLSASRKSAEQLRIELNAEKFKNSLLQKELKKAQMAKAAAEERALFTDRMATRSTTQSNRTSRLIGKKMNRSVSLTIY
T3 sequence (Q96SW2 whole entry): as the sequence (Q96SW2 whole entry) above
T3 sequence (Q16531 whole entry partner): as the sequence (Q16531 whole entry partner) above

| SMILES | Degradation of substrate protein IKZF2 (substrate protein remaining %) (IKZF2) | Degradation of substrate protein CKla (substrate protein remaining %) (CK1a) | Degradation of substrate protein WEE1 (substrate protein remaining %) (WEE1) | Degradation of substrate protein IKZF1 (substrate protein remaining %) (IKZF1) | Degradation of substrate protein GSPT1 (substrate protein remaining %) (GSPT1) | Degradation of substrate protein IKZF3 (substrate protein remaining %) (IKZF3) |
| --- | --- | --- | --- | --- | --- | --- |
| O=C1CCC(c2ccc(CO)cn2)C(=O)N1 (stereo not drawn) [GT-07075, 3-(5-(Hydroxymethyl)pyridin-2-yl)piperidine-2,6-dione] | A (A is defined as 0% ≤ substrate protein remaining % ≤ 80%) | B (B is defined as substrate protein remaining % > 80%) | B (B is defined as substrate protein remaining % > 80%) | B (B is defined as substrate protein remaining % > 80%) | A (A is defined as 0% ≤ substrate protein remaining % ≤ 80%) | A (A is defined as 0% ≤ substrate protein remaining % ≤ 80%) |
| CC(C)(C)[Si](C)(C)OCc1cnc(NC2CCC(=O)NC2=O)nc1 (stereo not drawn) [GT-07808, 3-((5-(((tert-Butyldimethylsilyl)oxy)methyl)pyrimidin-2-yl)amino)piperidine-2,6-dione] | A (A is defined as 0% ≤ substrate protein remaining % ≤ 80%) | B (B is defined as substrate protein remaining % > 80%) | A (A is defined as 0% ≤ substrate protein remaining % ≤ 80%) | A (A is defined as 0% ≤ substrate protein remaining % ≤ 80%) | B (B is defined as substrate protein remaining % > 80%) | A (A is defined as 0% ≤ substrate protein remaining % ≤ 80%) |
| O=C1CCC(c2cnc(F)c(CO)c2)C(=O)N1 (stereo not drawn) [GT-07074, 3-(6-Fluoro-5-(hydroxymethyl)pyridin-3-yl)piperidine-2,6-dione] | A (A is defined as 0% ≤ substrate protein remaining % ≤ 80%) | B (B is defined as substrate protein remaining % > 80%) | B (B is defined as substrate protein remaining % > 80%) | B (B is defined as substrate protein remaining % > 80%) | A (A is defined as 0% ≤ substrate protein remaining % ≤ 80%) | A (A is defined as 0% ≤ substrate protein remaining % ≤ 80%) |
| O=C1CCC(Nc2ccc(CO)nn2)C(=O)N1 (stereo not drawn) [GT-07803, 3-((6-(Hydroxymethyl)pyridazin-3-yl)amino)piperidine-2,6-dione] | A (A is defined as 0% ≤ substrate protein remaining % ≤ 80%) | B (B is defined as substrate protein remaining % > 80%) | B (B is defined as substrate protein remaining % > 80%) | A (A is defined as 0% ≤ substrate protein remaining % ≤ 80%) | B (B is defined as substrate protein remaining % > 80%) | A (A is defined as 0% ≤ substrate protein remaining % ≤ 80%) |
| O=C1CCC(c2ccc(CO)nc2F)C(=O)N1 (stereo not drawn) [GT-07558, 3-(2-Fluoro-6-(hydroxymethyl)pyridin-3-yl)piperidine-2,6-dione] | B (B is defined as substrate protein remaining % > 80%) | A (A is defined as 0% ≤ substrate protein remaining % ≤ 80%) | A (A is defined as 0% ≤ substrate protein remaining % ≤ 80%) | A (A is defined as 0% ≤ substrate protein remaining % ≤ 80%) | B (B is defined as substrate protein remaining % > 80%) | B (B is defined as substrate protein remaining % > 80%) |
| O=Cc1ccc(NC2CCC(=O)NC2=O)cn1 (stereo not drawn) [GT-07640, 5-((2,6-Dioxopiperidin-3-yl)amino)picolinaldehyde] | A (A is defined as 0% ≤ substrate protein remaining % ≤ 80%) | B (B is defined as substrate protein remaining % > 80%) | A (A is defined as 0% ≤ substrate protein remaining % ≤ 80%) | A (A is defined as 0% ≤ substrate protein remaining % ≤ 80%) | A (A is defined as 0% ≤ substrate protein remaining % ≤ 80%) | A (A is defined as 0% ≤ substrate protein remaining % ≤ 80%) |
| O=C1CCC(c2ccc(CO)nc2)C(=O)N1 (stereo not drawn) [GT-07010, 3-(6-(Hydroxymethyl)pyridin-3-yl)piperidine-2,6-dione] | B (B is defined as substrate protein remaining % > 80%) | A (A is defined as 0% ≤ substrate protein remaining % ≤ 80%) | B (B is defined as substrate protein remaining % > 80%) | B (B is defined as substrate protein remaining % > 80%) | A (A is defined as 0% ≤ substrate protein remaining % ≤ 80%) | A (A is defined as 0% ≤ substrate protein remaining % ≤ 80%) |
| O=C1CCC(Nc2ncccc2CO)C(=O)N1 (stereo not drawn) [GT-07197, 3-((3-(Hydroxymethyl)pyridin-2-yl)amino)piperidine-2,6-dione] | B (B is defined as substrate protein remaining % > 80%) | A (A is defined as 0% ≤ substrate protein remaining % ≤ 80%) | B (B is defined as substrate protein remaining % > 80%) | B (B is defined as substrate protein remaining % > 80%) | A (A is defined as 0% ≤ substrate protein remaining % ≤ 80%) | B (B is defined as substrate protein remaining % > 80%) |
| CC(C)(C)[Si](C)(C)OCc1cncc(NC2CCC(=O)NC2=O)c1 (stereo not drawn) [GT-07449, 3-((5-(((tert-Butyldimethylsilyl)oxy)methyl)pyridin-3-yl)amino)piperidine-2,6-dione] | A (A is defined as 0% ≤ substrate protein remaining % ≤ 80%) | B (B is defined as substrate protein remaining % > 80%) | B (B is defined as substrate protein remaining % > 80%) | B (B is defined as substrate protein remaining % > 80%) | B (B is defined as substrate protein remaining % > 80%) | B (B is defined as substrate protein remaining % > 80%) |
| CC(C)(C)[Si](C)(C)OCc1cc(NC2CCC(=O)NC2=O)ncc1F (stereo not drawn) [GT-07724, 3-((4-(((tertbutyldimethylsilyl)oxy)methyl)-5-fluoropyridin-2-yl)amino)piperidine-2,6-dione] | A (A is defined as 0% ≤ substrate protein remaining % ≤ 80%) | B (B is defined as substrate protein remaining % > 80%) | A (A is defined as 0% ≤ substrate protein remaining % ≤ 80%) | A (A is defined as 0% ≤ substrate protein remaining % ≤ 80%) | A (A is defined as 0% ≤ substrate protein remaining % ≤ 80%) | A (A is defined as 0% ≤ substrate protein remaining % ≤ 80%) |
